Laboratory results published in patent publication US8916599B2, “1H-benz imidazole-5-carboxamides as anti-inflammatory agents” (Orexo AB, priority 2008, dated 2014).

Biological target: T1, recombinant human mPGES-1 (Homo sapiens, UniProt O14684)
T1 construct: made in house; host or cells: Rosetta E. coli (microsomal/membrane fraction)
T1 sequence (O14684 1-152): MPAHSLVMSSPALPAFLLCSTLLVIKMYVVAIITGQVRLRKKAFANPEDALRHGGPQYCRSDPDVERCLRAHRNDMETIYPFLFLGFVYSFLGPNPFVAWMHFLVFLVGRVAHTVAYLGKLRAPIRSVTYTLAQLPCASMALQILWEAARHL
Experiment: mPGES-1 inhibition test (microsomes, PGH2 substrate, HTRF detection of PGE2)
Type: biochemical
Settings: inhibition of mPGES-1 at 1 μM (marked in cell)
Protocol: Microsomes from Rosetta E. coli bacteria expressing recombinant human mPGES-1 is dissolved in 0.1 M KPi pH 7.4 buffer containing 2.5 mM GSH. 50 μl of the enzyme is subsequently dispensed in a 384-well plate. 0.5 μl of the inhibitor dissolved in DMSO at is thereafter added to each well and incubated for 25 minutes at room temperature. Subsequently, 2 μl of PGH2 dissolved in an appropriate solvent is added to each well and after one minute the acidified stop solution containing FeCl2 is added. 4 μl of the total volume is transferred to a separate plate and diluted 750-fold in two separate steps before HTRF detection of PGE2.
The HTRf detection is performed by the use of a commercially available kit from CisBio essentially according to the manufacturer's protocol. Briefly, 10 μl of the diluted sample is transferred to a white 384-well plate. 5 μl of d2 and 5 μl Eu3+-Cryptate labeled anti-PGE2 is added to each well containing samples by the use of a Multidrop. The plate is covered with a plastic self-adhesive film, centrifuged at 1200 rpm for 1 minute and subsequently stored at +4° C. over night.
After over night incubation the fluorescence is measured by the use of an appropriate microplate reader. The fluorescence of europium cryptate, and d2 are measured using the following excitation and emission wavelength, europium cryptate: λmax^ex=307 nm, λmax^em=620 nm and d2: λmax^ex=620 nm, λmax^em=665 nm), respectively. The extent of the specific FRET is measured as a ratio of the emission intensity at 665 nm vs. that at 620 nm. A standard curve using synthetic PGE2 is used to quantify the amount of PGE2 in unknown samples.

| inhibition at 1 µM [%] | SMILES |
| --- | --- |
| 100 | COc1cc2c(cc1C(=O)NC1CCC(C)(C)CC1)nc(Nc1c(Cl)ccc(C)c1F)n2C [Example 650, 2-(6-Chloro-2-fluoro-3-methyl-phenylamino)-6-methoxy-N-(4,4-dimethyl-cyclohex-1-yl)-1-methyl-1H-benzimidazole-5-carboxamide] |
| 92 | COc1cc2[nH]c(Nc3c(Cl)ccc(C)c3F)nc2cc1C(=O)NC1CCC(C)(C)CC1 [Example 626] |

Same assay, conditions: inhibition of mPGES-1 at 10 μM

| inhibition at 10 µM [%] | SMILES |
| --- | --- |
| 93 | Cn1c(Nc2c(Cl)cccc2Cl)nc2cc(C(=O)Nc3ccc(Br)cc3)c(F)cc21 [Example 167, 2-(2,6-Dichloro-phenylamino)-6-fluoro-1-methyl-1H-benzimidazole-5-carboxylic acid (4-bromo-phenyl)-amide] |
| 100 | Cc1cccc(NC(=O)c2ccc3[nH]c(Nc4c(Cl)cccc4Cl)nc3c2)c1 [Example 4, 2-(2,6-Dichloro-phenylamino)-1H-benzimidazole-5-carboxylic acid m-tolylamide] |
| 92 | Cn1c(Nc2c(Cl)cccc2Cl)nc2cc(C(=O)NCC3CCCO3)ccc21 (stereo not shown) [Example 261, 2-(2,6-Dichloro-phenylamino)-1-methyl-1H-benzimidazole-5-carboxylic acid (tetrahydro-furan-2-ylmethyl)-amide] |
| 98 | Cc1cnc(NC(=O)c2cc3nc(Nc4c(Cl)cccc4Cl)n(C)c3cc2F)cc1Cl [Example 372, N-(4-Chloro-5-methylpyridin-2yl)-2-(2,6-dichlorophenylamino)-6-fluoro-1-methyl-1H-benzimidazole-5-carboxamide] |
| 97 | Cn1c(Nc2c(Cl)cccc2Cl)nc2cc(C(=O)Nc3ccccc3)ccc21 [Example 20, 2-(2,6-Dichloro-phenylamino)-1-methyl-1H-benzimidazole-5-carboxylic acid phenylamide] |
| 100 | Cc1c[n+]([O-])c(NC(=O)c2ccc3nc(Nc4c(Cl)cccc4Cl)[nH]c3c2)cc1Cl [Example 418, 4-Chloro-2-(2-(2,6-dichlorophenylamino)-1H-benzimidazole-6-carboxamido)-5-methylpyridine 1-oxide] |
| 94 | O=C(Nc1cc(Cl)ccn1)c1ccc2c(c1)nc(Nc1c(Cl)cccc1Cl)n2CCN1CCCC1=O [Example 267, 2-(2,6-Dichloro-phenylamino)-1-[2-(2-oxo-pyrrolidin-1-yl)-ethyl]-1H-benzimidazole-5-carboxylic acid (4-chloro-pyridin-2-yl)-amide] |
| 90 | O=C(Nc1cc(Cl)ccn1)c1ccc2c(c1)nc(Nc1c(Cl)cccc1Cl)n2CCC(=O)N1CCOCC1 [Example 264, 2-(2,6-Dichloro-phenylamino)-1-(3-morpholin-4-yl-3-oxo-propyl)-1H-benzimidazole-5-carboxylic acid (4-chloro-pyridin-2-yl)-amide] |
| 100 | N#Cc1cccc(NC(=O)c2ccc3[nH]c(Nc4c(Cl)cccc4Cl)nc3c2)c1 [Example 22, 2-(2,6-Dichloro-phenylamino)-1H-benzimidazole-5-carboxylic acid (3-cyano-phenyl)-amide] |
| 97 | O=C(O)CCn1c(Nc2c(Cl)cccc2Cl)nc2cc(C(=O)Nc3cc(Cl)ccn3)ccc21 [Example 265, 2-(2,6-Dichloro-phenylamino)-1-(propionic acid)-1H-benzimidazole-5-carboxylic acid (4-chloro-pyridin-2-yl)-amide] |
| 77 | CCc1ccc(C)nc1NC(=O)c1ccc2[nH]c(Nc3c(Cl)cccc3Cl)nc2c1 [Example 558, 2-(2,6-Dichlorophenylamino)-N-(3-ethyl-6-methylpyridin-2-yl)-1H-benzimidazole-5-carboxamide] |
| 97 | O=C(Nc1cc(Cl)ccn1)c1ccc2c(c1)nc(Nc1c(Cl)cccc1Cl)n2C1CNC1 [Example 207, 2-(2,6-Dichloro-phenylamino)-1-azetidin-3-yl-1H-benzimidazole-5-carboxylic acid (4-chloro-pyridin-2-yl)-amide(trifluoro-acetate)] |

The remaining lines, values behind:

| SMILES | inhibition at 10 µM [%] |
| --- | --- |
| CN(C)c1cccnc1CNC(=O)c1cc2nc(Nc3c(Cl)cccc3Cl)n(C)c2cc1F [Example 474, 2-(2,6-Dichlorophenylamino)-N-((3-dimethylamino-pyridin-2-yl)-methyl)-6-fluoro-1-methyl-1H-benzimidazole-5-carboxamide] | 100 |
| Cc1ccccc1Nc1nc2cc(C(=O)Nc3ccccc3)ccc2[nH]1 [Example 10, 2-(o-Tolyl-amino)-1H-benzimidazole-5-carboxylic acid-phenylamide] | 98 |
| COc1cc2c(cc1C(=O)NC1CCCCC1)nc(Nc1c(Cl)cccc1Cl)n2C [Example 135, 2-(2,6-Dichloro-phenylamino)-6-methoxy-1-methyl-1H-benzimidazole-5-carboxylic acid cyclohexylamide] | 100 |
| COc1cc2[nH]c(Nc3c(Cl)cc(F)cc3Cl)nc2cc1C(=O)N[C@H]1CC[C@H](C(F)(F)F)CC1 [Example 579, 2-(2,6-Dichloro-4-fluoro-phenylamino)-6-methoxy-N-(trans-4-trifluoromethyl-cyclohex-1-yl)-1H-benzimidazole-5-carboxamide] | 100 |
| O=C(N[C@H]1CC[C@H](C(F)(F)F)CC1)c1cc2nc(Nc3c(Cl)cc(F)cc3Cl)[nH]c2cc1OCC(F)(F)F [Example 583, 2-(2,6-Dichloro-4-fluoro-phenylamino)-N-(trans-4-trifluoromethyl-cyclohex-1-yl)-6-(2,2,2-trifluoroethoxy)-1H-benzimidazole-5-carboxamide] | 95 |
| O=C(Nc1ccc(Br)cn1)c1ccc2nc(Nc3c(F)cccc3Cl)[nH]c2c1 [Example 192, 2-(2-Chloro-6-fluoro-phenylamino)-3H-benzimidazole-5-carboxylic acid (5-bromo-pyridin-2-yl)-amide] | 100 |
| Cc1cc(NC(=O)c2cc3nc(Nc4c(Cl)cc(F)cc4Cl)[nH]c3cc2OCC(F)(F)F)nc(C(F)(F)F)c1 [compound 576] | 96 |
| CCOc1cc2[nH]c(Nc3c(Cl)ccc(Cl)c3F)nc2cc1C(=O)Nc1cccc(Cl)c1 [Example 603, 2-(3,6-Dichloro-2-fluoro-phenylamino)-N-(3-chloro-phenyl)-6-ethoxy-1H-benzimidazole-5-carboxamide] | 90 |
| Cc1cccnc1CNC(=O)c1cc2nc(Nc3c(Cl)cccc3Cl)n(C)c2cc1F [Example 510, 2-(2,6-Dichlorophenylamino)-6-fluoro-1-methyl-N-((3-methylpyridin-2-yl)methyl)-1H-benzimidazole-5-carboxamide] | 99 |
| Cn1c(Nc2c(Cl)cccc2Cl)nc2cc(C(=O)NC3CC4CCCCC4C3)c(F)cc21 (stereo not shown) [Example 163, 2-(2,6-Dichloro-phenylamino)-6-fluoro-1-methyl-1H-benzimidazole-5-carboxylic acid (octahydro-inden-2-yl)-amide] | 100 |
| COc1cc2nc(Nc3c(Cl)cccc3Cl)[nH]c2cc1C(=O)NCc1ncccc1C [Example 507, 2-(2,6-Dichlorophenylamino)-6-methoxy-N-((3-methylpyridin-2-yl)-methyl)-1H-benzimidazole-5-carboxamide] | 98 |
| O=C(NCc1ncccc1C(F)(F)F)c1ccc2[nH]c(Nc3c(Cl)cccc3Cl)nc2c1 [Example 220, 2-(2,6-Dichloro-phenylamino)-1H-benzimidazole-5-carboxylic acid (3-trifluoromethyl-pyridin-2-ylmethyl)-amide] | 96 |
| Cn1c(Nc2cc(C(F)(F)F)ccc2Cl)nc2cc(C(=O)Nc3ccc(Br)cc3)ccc21 [Example 423, N-(4-Bromophenyl)-2-(2-chloro-5-trifluoromethyl-phenylamino)-1-methyl-1H-benzimidazole-5-carboxamide] | 100 |
| O=C(Nc1ccc(Br)cc1)c1cc2nc(Nc3c(Cl)cc(F)cc3Cl)[nH]c2cc1OCC(F)F [Example 586, 2-(2,6-Dichloro-4-fluoro-phenylamino)-N-(4-bromo-phenyl)-6-(2,2-difluoroethoxy)-1H-benzimidazole-5-carboxamide] | 100 |
| O=C(NC1COc2ccccc2C1)c1cc2[nH]c(Nc3c(Cl)cccc3Cl)nc2cc1F (stereo not shown) [Example 152, 2-(2,6-Dichloro-phenylamino)-6-fluoro-1H-benzimidazole-5-carboxylic acid chroman-3-ylamide] | 95 |
| Cn1c(Nc2c(Cl)cccc2Cl)nc2cc(C(=O)NC3CCN(C4CC4)CC3)c(F)cc21 [Example 561, N-(1-Cyclopropylpiperidin-4-yl)-2-(2,6-dichlorophenylamino)-6-fluoro-1-methyl-1H-benzimidazole-5-carboxamide] | 77 |
| CC(C)[C@H]1CC[C@H](NC(=O)c2cc3nc(Nc4c(Cl)cccc4Cl)[nH]c3cc2F)CC1 [Example 375] | 100 |
